The subject of test [1] is delayed-type hypersensitivity murine model. Put plainly: Adoptive transfer delayed type hypersensitivity in mice (oxazolone). The class given is in vivo, mouse. The following applies: 6 mg/kg/day s.c. by implanted pump for 24 hours; versus saline. The procedure: An adoptive transfer delayed-type hypersensitivity murine model has been developed using splenic T cells primed to oxazolone. This model is described in Elices et al., Clin. Exp. Rheum., 11 (Suppl. 8):577-580 (1993), whose procedures were followed here.
Thus, BALB/c mice were shaved on the belly and painted (50 μl on the belly and 5 μl on each paw) with three percent oxazolone in acetone/olive oil (4:1) at days zero and 1. At day 5, the mice were sacrificed, their spleens removed, and splenic T cells were obtained via nylon wool columns.
Normal saline or saline containing 25×10^6 /animal of the oxazolone-immune T cells were separately injected into naive mice. The mice were then challenged by painting 10 μl of 2 percent oxazolone onto one ear each. All procedures were carried out under sterile conditions and in endotoxin-free buffers.
Prior to challenge or saline injection, the mice were implanted with pumps that subcutaneously administered normal saline, normal saline containing the compound, Compound ID No. 896.52, N-phenylacetyl-Leu-Asp-Phe-D-Pro-NH2, or normal saline containing a compound with a scrambled sequence continually at 6 mg/kg/day for a 24-hour time period. The swelling diameter at the site of challenge or saline injection was measured with a microcaliper 24 hours thereafter.
An expanded study was carried out as described above except that a scrambled compound control was not used as a control for further inhibitor compounds of Table 1 with larger groups of mice. Statistical analyses were carried out versus injection of vehicle alone.

Test [2] concerns Porcine peripheral blood lymphocytes. Put plainly: In vitro porcine allograft model: transendothelial lymphocyte migration. The class given is cell-based. The settings on record: 10 μg/ml in the medium; IL-1β-stimulated SMC. The method, then:
A similar study was carried out in vitro using porcine coronary artery endothelial cells (EC; as are present in the IEL) and smooth muscle cells (SMC; as are present in the medial layer of the artery). The two cell types were cultured using a membrane transwell system, with the SMC on the bottom layer in M-199 medium (Gibco Labs.). The SMC were stimulated with 100 ng/ml of interleukin-1β (IL-1β) for 24 hours prior to the start of the assay. Porcine peripheral blood lymphocytes were separated by Ficoll-Hypaque, radiolabeled and incubated overnight (about 18 hours) on the EC.
Transendothelial lymphocyte migration in the IL-1β-stimulated SMC was observed as compared to unstimulated SMC (p<0.05).

In the next test the test system is asthmatic sheep. Put plainly: Treatment of asthmatic sheep (Ascaris suum antigen). The class given is in vivo. The following applies: 24 hours after challenge; pre-challenge about 20-23 BU. The method, then: Six asthmatic sheep were treated in a double blind cross-over study. […] This study was carried out generally as described in Abraham et al., J. Clin. Invest., 93:776-787 (1994).
The inhibitor compound used here was Compound ID No. 896.52, N-phenylacetyl-Leu-Asp-Phe-D-Pro-NH2, with a control compound that comprised the previously described compound having the same residues in a scrambled sequence. The vehicle for the nebulized compounds was phosphate-buffered saline. The compounds were administered at a dose of 1 mg/kg each, twice a day for three days prior to challenge, as well as 0.5 hours prior to and four hours post challenge on day 4. Because this was a crossover study, each animal received one or the other treatment, followed by a rest and then the other treatment. Each animal therefore served as its own control.
Post challenge airway responsiveness was also assayed. Here, specific lung resistance, SRL, returned to baseline values 24 hours after challenge, however, the sheep were hyperresponsive to inhaled carbachol at that time.

For the next test, the target named is VLA-4 (Homo sapiens, UniProt P05556+P13612). Put plainly: In vitro binding inhibition of 51Cr-labeled Jurkat cells to solid phase-bound CS-1 compound (SEQ ID NO:1). It is filed as cell-based. The arrangement: inflammatory cells that contain the VLA-4 receptor [Jurkat cells; host or cells: Jurkat (human T lymphoblastic line). In short, it runs like this:
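51Cr-labeled human Jurkat cells were preincubated with compound 30 min at about 22° C, then allowed to bind to wells coated with CS-1 peptide or CS-1-OVA for 30 min at 37° C. After washing, bound cells were lysed with SDS and counted. IC50 is the concentration halving binding, normalized to SEQ ID NO: 3.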

Molecules are shown by their SMILES. Square brackets hold non-standard residues; d marks the D form. Peptide text beside a SMILES is read from it. * marks the point of attachment. PhAc = O=C(Cc1ccccc1)*

The record followed here is patent publication US5770573A, “CS-1 peptidomimetics, compositions and methods of using the same” (Cytel Corporation, priority 1995, dated 1998).

Chain of VLA-4 (P13612 34-1032): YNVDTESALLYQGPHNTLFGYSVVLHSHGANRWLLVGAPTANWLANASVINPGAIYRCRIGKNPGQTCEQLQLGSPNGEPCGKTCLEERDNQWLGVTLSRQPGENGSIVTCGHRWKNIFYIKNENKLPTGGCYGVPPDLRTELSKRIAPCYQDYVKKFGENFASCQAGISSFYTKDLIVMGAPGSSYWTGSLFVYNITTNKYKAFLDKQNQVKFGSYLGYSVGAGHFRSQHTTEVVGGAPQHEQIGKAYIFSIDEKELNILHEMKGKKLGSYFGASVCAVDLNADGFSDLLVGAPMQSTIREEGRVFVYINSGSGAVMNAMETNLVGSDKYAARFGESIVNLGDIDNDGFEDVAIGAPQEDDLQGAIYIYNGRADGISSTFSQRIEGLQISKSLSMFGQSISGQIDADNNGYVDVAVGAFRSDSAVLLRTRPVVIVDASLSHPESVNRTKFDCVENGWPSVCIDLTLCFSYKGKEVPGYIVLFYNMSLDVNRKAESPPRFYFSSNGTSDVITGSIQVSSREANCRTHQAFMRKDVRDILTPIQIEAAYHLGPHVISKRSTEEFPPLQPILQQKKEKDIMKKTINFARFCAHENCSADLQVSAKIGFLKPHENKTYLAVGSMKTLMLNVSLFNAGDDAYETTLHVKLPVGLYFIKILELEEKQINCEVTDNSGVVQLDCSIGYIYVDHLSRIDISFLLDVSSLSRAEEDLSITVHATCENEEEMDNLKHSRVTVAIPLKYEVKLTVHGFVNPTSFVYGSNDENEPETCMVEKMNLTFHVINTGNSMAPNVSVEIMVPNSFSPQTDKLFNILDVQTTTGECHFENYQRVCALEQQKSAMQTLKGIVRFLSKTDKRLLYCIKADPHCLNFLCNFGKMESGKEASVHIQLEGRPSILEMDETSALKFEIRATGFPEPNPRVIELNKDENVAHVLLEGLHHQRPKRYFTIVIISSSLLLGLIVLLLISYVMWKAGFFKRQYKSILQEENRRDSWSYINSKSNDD
Chain of VLA-4 (P05556 21-798): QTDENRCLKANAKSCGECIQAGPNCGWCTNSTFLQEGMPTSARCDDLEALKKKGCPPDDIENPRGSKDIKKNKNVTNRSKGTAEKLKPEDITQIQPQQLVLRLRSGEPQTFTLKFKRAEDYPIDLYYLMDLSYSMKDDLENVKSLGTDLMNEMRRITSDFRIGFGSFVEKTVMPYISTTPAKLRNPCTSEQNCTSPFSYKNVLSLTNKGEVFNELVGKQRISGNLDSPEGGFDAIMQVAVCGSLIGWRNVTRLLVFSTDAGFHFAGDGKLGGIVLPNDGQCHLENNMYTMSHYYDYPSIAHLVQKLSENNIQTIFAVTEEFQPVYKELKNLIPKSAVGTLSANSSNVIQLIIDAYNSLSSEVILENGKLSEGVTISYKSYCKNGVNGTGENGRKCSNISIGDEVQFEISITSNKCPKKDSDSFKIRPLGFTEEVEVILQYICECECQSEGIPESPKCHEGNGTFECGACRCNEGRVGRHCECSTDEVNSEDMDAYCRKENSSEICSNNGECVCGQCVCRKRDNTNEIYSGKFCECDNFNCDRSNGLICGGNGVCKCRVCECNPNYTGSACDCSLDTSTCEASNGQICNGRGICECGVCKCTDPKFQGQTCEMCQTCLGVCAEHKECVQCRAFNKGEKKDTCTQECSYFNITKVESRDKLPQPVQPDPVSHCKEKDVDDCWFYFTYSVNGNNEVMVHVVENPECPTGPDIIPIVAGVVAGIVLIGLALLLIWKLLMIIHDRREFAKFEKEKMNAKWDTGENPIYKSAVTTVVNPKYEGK

With `CC(C)C[C@H](NC(=O)[C@H](CC(=O)O)NC(=O)Cc1ccccc1)C(=O)N[C@@H](Cc1ccccc1)C(=O)N1CCC[C@@H]1C(N)=O` [Compound ID No. 1066.02, N-phenylacetyl-Asp-Leu-Phe-D-Pro-NH2, reference compound] (PhAc-DLF[dP]-NH2), the “swelling at challenge site (initial study, FIG. 5)” value in test [1] is listed as “no reduction of inflammation”. Besides, the “reduction of lymphocyte migration” value in test [2] is “did not reduce migration”. Further, in the test on asthmatic sheep, the “PC400, carbachol dosage to increase SRL 4-fold” value is listed as “about 12 BU”. Besides, the “Relative Potency” value on VLA-4 (binding inhibition potency relative to standard compound of SEQ ID NO:3 = 1 (normalized IC50), about one-tenth or less assigned zero) is 0. Besides, the “VLA-4 binding inhibition compared in words” value on VLA-4 (compared with standard 10-mer of SEQ ID NO:3) is listed as “no inhibition of VLA-4”.
